The source made the active and inactive calls. The rule behind the calls is not given here.
Key:
[1] = tested on: HEp-2 cell viability, cytotoxicity; assay: viability of HEp-2 cells – cell-based, set 1, cytotoxicity control, dose response (AID 602483)
[2] = as above; details: HEp-2 cell viability, cytotoxicity; at 50 µM (top of the series)

Compound	CC50 [1]	viability [2]
CN(C(=O)Cc1cccs1)c1nc2c(s1)CCCC2	5.67 µM	–
CCN1CCN(Cc2nc3ccc([N+](=O)[O-])cc3c(=O)n2-c2ccccc2F)CC1	–	72.6% (inactive)
CN1CCN(Cc2nc3ccc([N+](=O)[O-])cc3c(=O)n2-c2ccccc2F)CC1	–	70.1% (inactive)

— PubChem BioAssay AID602483 (Southern Research Specialized Biocontainment Screening …, 2012)
